Test results taken from patent publication US9707201B2 (Leptrex Ltd, priority 2013, dated 2017).
Entries after “also recorded” stand apart in the source; their conditions may differ.

Columns and labels:
[1] = system: MRSA clinical isolate QMUL301; test: Standard agar diffusion test, zones of inhibition; format: cell-based, methicillin-resistant Staphylococcus aureus; details: for Activity of the solution after storage: aqueous solution stored at 17° C. for 56 days
Description: The activity of powders and liquids was determined using standard agar diffusion tests. Susceptibility of isolates by measuring the zones of inhibition around a measured amount of the anti-microbial agent.
Bacteria: MRSA clinical isolate QMUL301 was used. Overnight broth cultures in isosensitest broth were prepared. These were diluted to give a final concentration of 10^5 cfu/ml
Media: Isosensitest agar (Oxoid Ltd).
• A broth containing 10^5 cfu/ml was prepared in peptone water. • 0.2 ml was spread over each isosensitest plate. • Plates were air dried and a 6 mm well cut in the centre of the plate. • A volume of 100 ul of liquid or 100 ug of solid was added to each well. • Plates were incubated overnight at 37° C. • The presence of zones of inhibition around a well is indicative of biological activity being present. No zone around the 6 mm well, (as with the negative control) represented no biological activity.

[2] = format: physicochemical; details: buffer
Description: 1. Aqueous solutions were prepared using 70 ml water and 6 g McCormick garlic powder, along with methiin or alliin in the proportions shown in table 37 below. The liquid in the top row was prepared from a blend of the following liquids:
2. All solutions were prepared at a temperature of 21° C. with the garlic powder reaction mixture being stirred for 3 hours. At the end of the 3 hour stirred reaction period, the solutions were filtered and immediately assayed by HPLC for their respective A-1, A-2 and A-4 content. These initial concentration values were considered as Time Zero values. 3. After Time Zero thiosulfinate concentrations had been obtained, the solutions were stored at stable temperatures within accurate temperature regulated ovens. 4. Samples of each temperature stored aqueous solution were withdrawn at appropriate time intervals and assayed by HPLC for A-1, A-2 and A-4 content. The decay of the blended liquid can be seen in FIGS. 64, 65 and 66. […] 5. The decomposition profile graphs for MMTSO, MA-AM and Allicin are shown in FIGS. 67, 68 and 69 respectively. These figures were constructed by expressing their respective HPLC peak area integration values measured at 240 nm as a function of sample storage time to obtain Relative % Concentration values. In all cases the best fit was obtained with MicroCal Origin s/w using a first order exponential decay fit. In FIG. 67, the half-life value was obtained by interpolating the time at which the A-4 (MMTSO) peak provides ½ integral value of that initially obtained for A-4 peak at Time Zero. Half-life for A-4 at 55° C. was determined as 51.1 hrs. Similarly in FIG. 68, the half-life value was obtained by interpolating the time at which A-1 (MA-AM) peak provides ½ integral value of that initially obtained for A-1 peak at Time Zero. Half-life for A-1 was determined as 30.2 hrs. Once again, the half-life value was obtained by interpolating the time at which A-2 (Allicin) peak provides ½ integral value of that initially obtained for A-2 peak at Time Zero. Half-life for A-2 is determined as 9.4 hrs.

[3] = system: herpes simplex virus types 1 and 2, parainfluenza virus type 3 and rhinovirus type 2; details: in vitro, compounds present in garlic extracts; cited from earlier work
[4] = Ageing of aqueous FG + P-1 reaction solution at 40° C., thiosulfinate content by HPLC; format: physicochemical; details: for A4 Peak Integration Value × 10^−4: 240 nm
Description: Similar studies were conducted with an aqueous solution of analogue 4 (MMTSO) produced by the method of process 6a, as set out in row 4 of table 23.
1. The reaction mixture (12.0 g FG+400 mg P-1+70 ml H2O) was filtered immediately after 4 hour reaction time and served as the stock solution for this study.
2. The filtered solution was divided into 2 portions. One to be stored frozen and the other to be stored at 40° C.
3. The portion of filtered solution to be used to determine the half-life of A4 was placed in a sealed glass bottle that was placed in an oven that provided a stable temperature of 40° C.
4. At irregular intervals a sample of the aqueous solution was withdrawn and analysed by HPLC.
FIGS. 57-60 show the chromatogram obtained after 0, 120, 168 and 672 hours respectively. Their concentrations are set out below in table 32: […]

Helicobacter pylori = details: Canizares et al. 2004; cited from earlier work
[5] = Thiosulfinate half-life in aqueous ethanol garlic extract solutions by quantitative reverse phase HPLC; format: physicochemical; details: buffer, initial allicin 400 ppm, mean (SD), n=3
Description: The solutions were prepared from a single stock aqueous garlic extract solution that was diluted with the appropriate volume of ethanol to produce the 25%, 50% and 75% ethanol garlic aqueous extract solutions. The aqueous stock solution of garlic extract assayed by HPLC was determined to have an allicin content of 1600 ppm (1600 mg allicin in 1000 ml water) and each of the 25%, 50% and 75% ethanol:aqueous dilutions prepared from the aqueous garlic extract stock solution were prepared to provide an initial allicin concentration of 400 ppm.
The decomposition profiles of MeS(O)SAll and AllS(O)SMe (the MA-AM mixture collectively referred to as Analogue-1), AllS(O)SAll (Allicin, Analogue-2) and AllS(O)SPn-(E,Z) (Analogue-3) thiosulfinates were then determined by quantitative reverse phase HPLC. The quantitative HPLC procedure involved determining the relative concentrations of each thiosulfinate in the various solutions at the various ageing temperatures as a function of the time that each solution was stored at a carefully controlled temperature. The initial measurement of the concentration value for each thiosulfinate determined immediately after freshly prepared solutions were prepared provides the 100% thiosulfinate concentration value for the start time (time zero) at which the time-lapse thermal decomposition measurements started to commence.
The quantitative HPLC data recorded for the MA-AM mixture (Analogue-1), allicin (Analogue-2) and AllS(O)SPn-(E,Z) (Analogue-3) established that each thiosulfinate was subject to a first-order exponential decay process when the 25%, 50% and 75% aqueous:ethanol garlic extract solutions were stored (aged) through the temperature range 40-20° C. FIGS. 2-4 show exponential decay profiles obtained for MA-AM (Analogue-1), allicin (Analogue-2) and AllS(O)SPn-(E,Z) (Analogue-3)—FIGS. 2-4 produced from data obtained from the HPLC analyses of the same single sample whose solvent composition was ethanol:water (25:75% by volume) with an initial allicin concentration of 400 ppm. The decay profiles were obtained using ORIGIN version 6.1 software (Origin is a registered trade mark of OriginLab Corporation) software that determined the best fit for decomposition profiles as being first-order exponential decay. From the decomposition profiles shown in FIGS. 2-4 it is possible to interpolate to determine the time required for each thiosulfinate to decompose to 50% of its initial concentration level that had been initially measured at the outset when controlled temperature storage started.

[6] = Thiosulfinate half-life in 100% aqueous garlic extract solution by quantitative HPLC; format: physicochemical; details: buffer, 100% aqueous solution, mean (SD), n=3, read-out: Half-Life (hours) at 20° C.
[7] = aqueous solution (12.0 g FG + 400 mg P-1 + 70 ml H2O), 0 hours aged at 40° C.
[8] = aqueous solution, 0 hours aged at 40° C.
[9] = aqueous solution, 120 hours aged at 40° C.
[10] = aqueous solution, 168 hours aged at 40° C.
[11] = aqueous solution, 672 hours aged at 40° C.

Compound: allyl allyl-thiosulfinate [Analogue A-2, reference compound]
- Activity of the solution after storage [1]: lost all measurable activity
- Half-Life hrs [2]: 9.4 h
- Virucidal activity [3]: possess virucidal activity
- concentration (ppm) [4, 7]: 47 ppm
- Inhibition of the in vitro growth of Helicobacter pylori (Helicobacter pylori): show inhibition

Compound: CS[S+](C)[O-] (stereo not shown) [Analogue A-4, methyl methyl-thiosulfinate]
- Activity of the solution after storage [1]: remains active
- Antimicrobial activity against MRSA ([1]; aqueous solutions): significant antimicrobial activity; also recorded: at least the same level of antimicrobial activity against MRSA as A-2
- Half-Life hrs [2]: 51.1 h
- A-4 ppm ([4]; aqueous solution (Red Spot), stored at 40° C. for 672 hours): 1597 ppm
- A4 concentration converted from peak integration value [4, 8]: (=2410 ppm)
- A4 Peak Integration Value × 10^−4 [4, 8]: 1153
- A4 Peak Integration Value × 10^−4 [4, 9]: 1074
- A4 Peak Integration Value × 10^−4 [4, 10]: 1004
- A4 Peak Integration Value × 10^−4 [4, 11]: (743)
- A4 Peak Integration Value × 10^−4 ([4]; aqueous solution, 672 hours aged at 40° C., listed as A4): 764

Compound: methyl allyl-thiosulfinate (MA) and its structural isomer allyl methyl-thiosulfinate (AM) [Analogue A-1]
- Half-Life hrs [2]: 30.2 h
- concentration (ppm) [4, 7]: 843 ppm
- concentration (ppm) [4, 9]: 415 ppm
- concentration (ppm) [4, 10]: 314 ppm
- concentration (ppm) [4, 11]: 35 ppm

Compound: C=CC[S+]([O-])SC=CC (stereo not shown)
- half-life ([5]; 25% EtOH, 20° C.): 134 h
- half-life ([5]; 25% EtOH, 25° C.): 66.1 h
- half-life ([5]; 25% EtOH, 30° C.): 39.5 h
- half-life ([5]; 25% EtOH, 35° C.): 25 h
- half-life ([5]; 25% EtOH, 40° C.): 15.3 h
- half-life ([5]; 50% EtOH, 20° C.): 203 h
- half-life ([5]; 50% EtOH, 25° C.): 121 h
- half-life ([5]; 50% EtOH, 30° C.): 65.6 h
- half-life ([5]; 50% EtOH, 35° C.): 28.8 h
- half-life ([5]; 50% EtOH, 40° C.): 17.3 h
- half-life ([5]; 75% EtOH, 20° C.): 161 h
- half-life ([5]; 75% EtOH, 25° C.): 73.4 h
- half-life ([5]; 75% EtOH, 30° C.): 46.9 h
- half-life ([5]; 75% EtOH, 35° C.): 30.3 h
- half-life ([5]; 75% EtOH, 40° C.): 17.6 h
- half-life ([6]; initial allicin (A-2) concentration 375 ppm): 140 h
- half-life ([6]; initial allicin (A-2) concentration 1500 ppm): 77.2 h
